Results published in BigSolDB 2.1.

Brc1cn[nH]c1
solubility (mole fraction)
Details | in ethanol | in methanol | in water
283.15 K | 0.265 | 0.203 | 0.0048
285.65 K | 0.275 | 0.218 | 0.00501
288.15 K | 0.287 | 0.234 | 0.00532
290.65 K | 0.299 | 0.252 | 0.00562
293.15 K | 0.311 | 0.27 | 0.00591
295.65 K | 0.325 | 0.292 | 0.00623
298.15 K | 0.339 | 0.312 | 0.0066
300.65 K | 0.354 | 0.333 | 0.00696
303.15 K | 0.372 | 0.355 | 0.00733
305.65 K | 0.39 | 0.379 | 0.00772
308.15 K | 0.409 | 0.402 | 0.00809
310.65 K | 0.431 | 0.426 | 0.00848
313.15 K | 0.457 | 0.452 | 0.00895
315.65 K | 0.481 | 0.479 | 0.00941
318.15 K | 0.506 | 0.503 | 0.00987
